Test results taken from US20060110451A1, “Formulations of [1,4]diazepino[6,7,1-IJ]quinoline derivatives” (priority 2004, published 2006).

Key:
[1] = Early toxicology testing in dogs; assay type: in vivo; conditions: oral suspension
From the text: Enteric-coated capsules were developed which delayed the release of the drug. […] For human clinical studies, enteric-coated pellets were developed which provided advantages over enteric-coated capsules for dose flexibility and more uniform release in the intestinal tract.

5-HT2C = target: T1, 5-HT2C (Homo sapiens, UniProt P28335); conditions: cited from earlier work
T1 sequence (P28335 33-458): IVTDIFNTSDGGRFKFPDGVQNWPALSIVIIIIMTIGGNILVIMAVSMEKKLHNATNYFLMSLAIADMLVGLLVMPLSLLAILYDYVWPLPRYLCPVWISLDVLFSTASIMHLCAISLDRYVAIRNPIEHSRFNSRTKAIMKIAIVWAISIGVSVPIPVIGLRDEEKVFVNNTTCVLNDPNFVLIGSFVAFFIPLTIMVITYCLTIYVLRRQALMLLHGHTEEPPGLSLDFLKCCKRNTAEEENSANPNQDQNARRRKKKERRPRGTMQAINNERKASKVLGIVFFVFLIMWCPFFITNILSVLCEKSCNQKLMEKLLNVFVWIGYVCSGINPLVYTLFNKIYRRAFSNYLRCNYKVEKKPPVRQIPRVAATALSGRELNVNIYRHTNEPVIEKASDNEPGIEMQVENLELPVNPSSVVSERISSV

Cl.c1cc2c3c(c1)[C@H]1CCC[C@H]1CN3CCNC2 [Compound A.HCl, (9aR,12aS)-4,5,6,7,9,9a,10,11,12,12a-decahydrocyclopenta[c][1,4]diazepino[6,7,1-ij]quinoline hydrochloride]
reaction noted in toxicology testing [1]: emetic reaction | 5-HT2C agonist activity (5-HT2C): potent 5-HT2C agonist
